Data reported in patent USRE48461E1, “Modulation of androgen receptor expression” (Ionis Pharmaceuticals, Inc., priority 2012, dated 2021).

Tests used:
Assay type in all cases: cell-based, human
VCaP cells = test: VCaP apoptosis (Caspase-Glo 3/7); details: VCaP cells, complete medium, 72 hours
Procedure: After a treatment period of 72 hours in complete medium, apoptosis of the cancer cells was measured with Caspase-Glo 3/7 assay (Promega). Results are presented in Tables 117 and 118 as percent apoptosis of the cells, relative to non-treated cells.

C4-2B cells = test: C4-2B cell proliferation (complete or CSS+DHT medium; Example 30); details: C4-2B cells, 5 days
Procedure: After a treatment period of 5 days in complete medium or CSS+1 nM DHT medium, the proliferative capacity of the cancer cells was measured with using CellTiter 96® AQueous One or CellTiter-Glo® Solution Cell Proliferation kit (Promega), following the manufacturer's instructions.

AR V7 variant mRNA = test: AR V7 variant RNA in VCaP cells; details: RNAiMax, 48 hrs
Procedure: Cells were plated at 10,000 cells per well. […] ISIS 549148 was included as a negative control. After an incubation period of 48 hrs, RNA levels of full length AR, the V7 variant, PSA and TMPRSS2 were measured.
A separate set of cells was treated with MDV-3100 at 0.04 μM, 0.2 μM, 1.0 μM, or 5.0 μM. After an incubation period of 48 hrs, RNA levels of full length AR, the V7 variant, PSA and TMPRSS2 were measured. The data is presented in Tables 108 expressed as percent expression of gene levels compared to the untreated control.
Cells were plated at 15,000 cells per well and cultured in CSS media for 16 hours. […] ISIS 549148 was included as a negative control. After 4 hrs, 1 nM DHT was added. […] After an incubation period of 48 hrs, RNA levels of AR, PSA and TMPRSS2 were measured. […]

22RV1 cells = test: 22RV1 cell proliferation, ASO in combination with MDV3100 (Example 22); details: for Proliferation (% untreated control) in 22RV1 without MDV-3100: RNAiMAX, 3 days
Procedure: 22RV1 cells were plated at 2,000 cells per well in 5% CSS medium for 48 hours. […] ISIS 549148 was included as a negative control. […] After a treatment period of 3 days, the proliferative capacity of the cancer cells was measured with CellTiter 96® AQueous One Solution Cell Proliferation kit (Promega), following the manufacturer's instructions. Results are presented in Tables 58-62 as percent inhibition of proliferation, relative to non-treated cells.

PSA mRNA = test: PSA expression in C4-2 cells; details: 48 hrs; for Percent inhibition of PSA expression: C4-2 cells, CSS + DHT medium
Procedure: Cells were plated at 1,000 cells per well. […] After an incubation period of 48 hrs, RNA levels of AR, PSA and TMPRSS2 were measured.
Cells were plated at 2,000 cells per well and cultured in CSS media with 1 nM DHT. […] After an incubation period of 48 hrs, RNA levels of AR, PSA and TMPRSS2 were measured.

## GGCTACTACGCCGTCA (3-10-3 (S)-cEt gapmer, chemistry not fully specified) [ISIS 549148, reference compound]
VCaP cells; 1.34 nM
  Apoptosis (% untreated control): 131 % untreated control
VCaP cells; 4.0 nM
  Apoptosis (% untreated control): 108 % untreated control
VCaP cells; 13.4 nM
  Apoptosis (% untreated control): 103 % untreated control
VCaP cells; 40 nM
  Apoptosis (% untreated control): 146 % untreated control
C4-2B cells; CSS + DHT medium, 0.04 μM
  Proliferation (% untreated control): 109 % untreated control
C4-2B cells; CSS + DHT medium, 0.2 μM
  Proliferation (% untreated control): 131 % untreated control
C4-2B cells; CSS + DHT medium, 1 μM
  Proliferation (% untreated control): 119 % untreated control
C4-2B cells; CSS + DHT medium, 5.0 μM
  Proliferation (% untreated control): 114 % untreated control
C4-2B cells; complete medium, 0.04 μM
  Proliferation (% untreated control): 119 % untreated control
C4-2B cells; complete medium, 0.2 μM
  Proliferation (% untreated control): 97 % untreated control
C4-2B cells; complete medium, 1 μM
  Proliferation (% untreated control): 103 % untreated control
C4-2B cells; complete medium, 5.0 μM
  Proliferation (% untreated control): 98 % untreated control
AR V7 variant mRNA; CSS + DHT medium, 1.34 nM
  Percent inhibition of AR V7 variant: 12%
AR V7 variant mRNA; CSS + DHT medium, 4.0 nM
  Percent inhibition of AR V7 variant: 0%
AR V7 variant mRNA; CSS + DHT medium, 13.4 nM
  Percent inhibition of AR V7 variant: 0%
AR V7 variant mRNA; CSS + DHT medium, 40 nM
  Percent inhibition of AR V7 variant: 5%
AR V7 variant mRNA; complete medium, 1.34 nM
  Percent inhibition of AR V7 variant: 0%
AR V7 variant mRNA; complete medium, 4.0 nM
  Percent inhibition of AR V7 variant: 8%
AR V7 variant mRNA; complete medium, 13.4 nM
  Percent inhibition of AR V7 variant: 0%
AR V7 variant mRNA; complete medium, 40 nM
  Percent inhibition of AR V7 variant: 14%
22RV1 cells; ASO dose 0.4 nM + 0.04 μM MDV-3100
  Proliferation (% untreated control) in 22RV1 cells with 0.04 μM MDV-3100: 106 % untreated control
22RV1 cells; ASO dose 0.4 nM + 0.2 μM MDV-3100
  Proliferation (% untreated control) in 22RV1 cells with 0.2 μM MDV-3100: 101 % untreated control
22RV1 cells; ASO dose 0.4 nM + 1.0 μM MDV-3100
  Proliferation (% untreated control) in 22RV1 cells with 1.0 μM MDV-3100: 106 % untreated control
22RV1 cells; ASO dose 0.4 nM + 5.0 μM MDV-3100
  Proliferation (% untreated control) in 22RV1 cells with 5.0 μM MDV-3100: 96 % untreated control
22RV1 cells; ASO dose 0.4 nM
  Proliferation (% untreated control) in 22RV1 without MDV-3100: 109 % untreated control
22RV1 cells; ASO dose 1.34 nM + 0.04 μM MDV-3100
  Proliferation (% untreated control) in 22RV1 cells with 0.04 μM MDV-3100: 106 % untreated control
22RV1 cells; ASO dose 1.34 nM + 0.2 μM MDV-3100
  Proliferation (% untreated control) in 22RV1 cells with 0.2 μM MDV-3100: 115 % untreated control
22RV1 cells; ASO dose 1.34 nM + 1.0 μM MDV-3100
  Proliferation (% untreated control) in 22RV1 cells with 1.0 μM MDV-3100: 95 % untreated control
22RV1 cells; ASO dose 1.34 nM + 5.0 μM MDV-3100
  Proliferation (% untreated control) in 22RV1 cells with 5.0 μM MDV-3100: 102 % untreated control
22RV1 cells; ASO dose 1.34 nM
  Proliferation (% untreated control) in 22RV1 without MDV-3100: 109 % untreated control
22RV1 cells; ASO dose 4.0 nM + 0.04 μM MDV-3100
  Proliferation (% untreated control) in 22RV1 cells with 0.04 μM MDV-3100: 100 % untreated control
22RV1 cells; ASO dose 4.0 nM + 0.2 μM MDV-3100
  Proliferation (% untreated control) in 22RV1 cells with 0.2 μM MDV-3100: 110 % untreated control
22RV1 cells; ASO dose 4.0 nM + 1.0 μM MDV-3100
  Proliferation (% untreated control) in 22RV1 cells with 1.0 μM MDV-3100: 98 % untreated control
22RV1 cells; ASO dose 4.0 nM + 5.0 μM MDV-3100
  Proliferation (% untreated control) in 22RV1 cells with 5.0 μM MDV-3100: 98 % untreated control
22RV1 cells; ASO dose 4.0 nM
  Proliferation (% untreated control) in 22RV1 without MDV-3100: 109 % untreated control
22RV1 cells; ASO dose 13.4 nM + 0.04 μM MDV-3100
  Proliferation (% untreated control) in 22RV1 cells with 0.04 μM MDV-3100: 85 % untreated control
22RV1 cells; ASO dose 13.4 nM + 0.2 μM MDV-3100
  Proliferation (% untreated control) in 22RV1 cells with 0.2 μM MDV-3100: 96 % untreated control
22RV1 cells; ASO dose 13.4 nM + 1.0 μM MDV-3100
  Proliferation (% untreated control) in 22RV1 cells with 1.0 μM MDV-3100: 82 % untreated control
22RV1 cells; ASO dose 13.4 nM + 5.0 μM MDV-3100
  Proliferation (% untreated control) in 22RV1 cells with 5.0 μM MDV-3100: 85 % untreated control
22RV1 cells; ASO dose 13.4 nM
  Proliferation (% untreated control) in 22RV1 without MDV-3100: 99 % untreated control
PSA mRNA; 0.04 μM
  Percent inhibition of PSA expression: 0%
  Percent inhibition of PSA expression in C4-2 cells cultured in complete medium: 15%
PSA mRNA; 0.2 μM
  Percent inhibition of PSA expression: 8%
  Percent inhibition of PSA expression in C4-2 cells cultured in complete medium: 24%
PSA mRNA; 1 μM
  Percent inhibition of PSA expression: 21%
  Percent inhibition of PSA expression in C4-2 cells cultured in complete medium: 24%
PSA mRNA; 5.0 μM
  Percent inhibition of PSA expression: 22%
  Percent inhibition of PSA expression in C4-2 cells cultured in complete medium: 23%
